What all share (assay type): biochemical
The target of one test is PKCα (Homo sapiens, UniProt P17252). Kind of test: PKCα kinase Caliper assay. Particulars: PKCα Caliper assay; read-out: PKC IC50. As for the experimental part:
PKCα and cABLT315 Kinase Caliper Assays
Assays were performed in 384 well microtiter plates. Each assay plate contained 8-point serial dilutions for test compounds, as well as two 16-point serial dilutions of staurosporine as reference compound, plus 16 high- and 16 low controls. Liquid handling and incubation steps were done on a Thermo CatX workstation equipped with a Innovadyne Nanodrop Express. Between pipetting steps, tips were cleaned in wash cycles using wash buffer. Plates with terminated kinase reactions were transferred to the Caliper LC3000 workstations for reading. Phosphorylated and unphosphorylated peptides were separated using the Caliper microfluidic mobilitishift technology and Kinase activities were calculated from the amounts of formed phospho-peptide.
1. 0.05 μA Compound (start with 1.8 mM in 90% DMSO/10% H2O)
2. +4.5 μl 2× peptide/ATP solution
3. +4.5 μl 2× enzyme solution
4. Incubate for 60 min at 30° C.
4. +16 μl stop/run buffer
Independent of the kinase, all reactions were done performed in 50 mM HEPES, pH 7.5, 1 mM DTT, 0.02% Tween20, 0.02% BSA, and 0.6% DMSO.

In a further test the target is GSK3β (Homo sapiens, UniProt P49841). Kind of test: GSK3β ATP depletion assay. Particulars: ATP depletion assay; read-out: GSK3b IC50. In outline:
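Kinase activity is read as ATP consumption: luciferase luminescence reports the ATP remaining once roughly half of the 2 μM ATP is used. Reaction mix: 5 nM GSK3β, 10 μM b-CREB peptide, 50 mM Tris pH 7.5, 15 mM MgCl2, 1 mM DTT, 0.1% BSA, 2.5% DMSO. Enzyme and peptide are preincubated 15 min before ATP is added.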

A further test has as its target PDGFRaV561D kinase (Homo sapiens, UniProt P16234, V561D). Nature of the test: PDGFRaV561D kinase inhibition assay (LanthaScreen TR-FRET). Particulars: read-out: PDGFRa IC50. As for the experimental part: PDGFRaV561D Kinase Inhibition Assay
LanthaScreen™ is the detection of Time-Resolved Fluorescence Resonance Energy Transfer (TR-FRET) using lanthanide chelates to measure interactions between various binding partners. The application of TR-FRET to assay kinase activity was first described by Mathis (1995). A TR-FRET assay was used to measure PDGFRaV561D kinase inhibitory activity. The assay panel was run on a Biomek FX liquid handling workstations. To the assay plates containing […] compound or control solutions, 4.5 μL of buffer A (50 mM TRIS-HCl pH 7.4, 2 mM DTT, 0.02% Tween 20, 0.02 mM Na3VO4, H2O nanpure) including a generic concentration of ATP (2 μM f.c.) was added per well, followed by […] of buffer B (4 uM ATP in Buffer A) including a generic concentration of polyEAY (50 nM f.c.), PDGFRaV561D kinase, and divalent cations. Final concentration of kinase and cations were: [PDGFRaV561D kinase]=4.4 nM, [Mn]=10 mM. After 1 hour of incubation the kinase reactions were stopped by the addition of 4.5 μL of stop solution D (50 mM EDTA, 20 mM TRIS-HCl pH 7.4, 0.04% NP-40) immediately followed by 4.5 μL of buffer A (50 mM TRIS-HCl pH 7.4, 2 mM DTT, 0.02% Tween 20, 0.02 mM Na3VO4, H2O nanpure) including the Tb-labeled P-20 antibody to give a total detection volume of […]. After an incubation time of 45 min in the dark, the plates were transferred into the Pherastar fluorescence reader for counting. The effect of compound on the enzymatic activity was obtained from the linear progress curves and determined from one reading (end point measurement).

Chain of GSK3β (P49841 whole entry, species assumed): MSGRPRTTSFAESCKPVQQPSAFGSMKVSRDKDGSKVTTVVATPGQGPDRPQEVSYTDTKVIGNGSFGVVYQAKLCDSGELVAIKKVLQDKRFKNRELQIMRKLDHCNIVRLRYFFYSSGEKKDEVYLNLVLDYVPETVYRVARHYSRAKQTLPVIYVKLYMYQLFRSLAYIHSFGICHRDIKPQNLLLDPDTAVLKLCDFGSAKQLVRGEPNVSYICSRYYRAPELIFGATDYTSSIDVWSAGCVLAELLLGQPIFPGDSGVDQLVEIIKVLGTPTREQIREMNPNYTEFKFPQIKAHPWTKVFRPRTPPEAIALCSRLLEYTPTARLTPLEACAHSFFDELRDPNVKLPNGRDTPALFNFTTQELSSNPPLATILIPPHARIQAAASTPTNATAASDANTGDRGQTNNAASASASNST
Chain of PDGFRaV561D kinase (P16234 24-1089 V561D): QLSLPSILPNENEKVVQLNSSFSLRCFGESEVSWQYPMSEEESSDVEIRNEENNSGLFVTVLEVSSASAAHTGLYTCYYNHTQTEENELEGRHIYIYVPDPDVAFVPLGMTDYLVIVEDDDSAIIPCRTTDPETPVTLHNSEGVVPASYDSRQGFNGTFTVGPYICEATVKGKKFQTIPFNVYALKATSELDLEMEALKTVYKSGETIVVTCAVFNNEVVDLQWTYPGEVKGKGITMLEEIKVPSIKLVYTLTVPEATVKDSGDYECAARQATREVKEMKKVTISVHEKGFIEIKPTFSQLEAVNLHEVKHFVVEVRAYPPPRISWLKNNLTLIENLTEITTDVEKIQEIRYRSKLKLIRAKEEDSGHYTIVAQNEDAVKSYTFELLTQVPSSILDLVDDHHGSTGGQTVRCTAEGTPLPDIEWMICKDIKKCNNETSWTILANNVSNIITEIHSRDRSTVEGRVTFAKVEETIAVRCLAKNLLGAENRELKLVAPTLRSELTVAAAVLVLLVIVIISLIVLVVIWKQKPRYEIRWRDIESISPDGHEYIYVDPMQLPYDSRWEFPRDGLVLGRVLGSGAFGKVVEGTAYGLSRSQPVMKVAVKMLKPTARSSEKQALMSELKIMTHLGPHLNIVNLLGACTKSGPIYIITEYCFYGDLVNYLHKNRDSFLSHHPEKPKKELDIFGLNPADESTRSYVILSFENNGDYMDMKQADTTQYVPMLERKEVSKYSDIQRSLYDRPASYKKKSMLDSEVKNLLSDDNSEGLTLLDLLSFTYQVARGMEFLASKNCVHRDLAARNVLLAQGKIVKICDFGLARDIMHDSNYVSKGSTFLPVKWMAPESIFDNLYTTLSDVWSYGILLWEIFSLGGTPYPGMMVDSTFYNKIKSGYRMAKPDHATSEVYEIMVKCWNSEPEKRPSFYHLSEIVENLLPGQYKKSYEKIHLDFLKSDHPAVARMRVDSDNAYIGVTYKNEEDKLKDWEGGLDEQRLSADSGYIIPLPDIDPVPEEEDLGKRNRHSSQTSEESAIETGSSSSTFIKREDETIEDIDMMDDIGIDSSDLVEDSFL

With `Nc1ncc(-c2ccccc2)nc1C(=O)Nc1cnccc1[C@@H]1C[C@H](N)[C@]2(O)CCCC[C@@H]2O1` [Example 243, 3-amino-N-(4-((2S,4S,4aR,8aS)-4-amino-4a-hydroxyoctahydro-2H-chromen-2-yl)pyridin-3-yl)-6-phenylpyrazine-2-carboxamide], the concentration for half-maximal inhibition (IC50) amounted to 7200 nM on PKCα, 870 nM at GSK3β and 8300 nM at PDGFRaV561D kinase.
For `CC(C)[C@@H]1C[C@H](N)C[C@H](c2ccncc2NC(=O)c2nc(-c3ccccc3)cnc2N)O1` [Example 291, 3-amino-N-(4-((2R,4S,6S)-4-amino-6-isopropyltetrahydro-2H-pyran-2-yl)pyridin-3-yl)-6-phenylpyrazine-2-carboxamide], in that order: 43 nM, 4.4 nM and 81 nM.
On the same counts, the results for `CC(C)[C@H]1C[C@@H](N)C[C@@H](c2ccncc2NC(=O)c2nc(-c3ccccc3)cnc2N)O1` [Example 292, 3-amino-N-(4-((2S,4R,6R)-4-amino-6-isopropyltetrahydro-2H-pyran-2-yl)pyridin-3-yl)-6-phenylpyrazine-2-carboxamide] are 100 nM, 44 nM and 4400 nM.
For `CC1(C)C[C@@H](N)C[C@H](c2ccncc2NC(=O)c2nc(-c3ccccc3)cnc2N)O1` [Example 296, 3-amino-N-(4-((2R,4S)-4-amino-6,6-dimethyltetrahydro-2H-pyran-2-yl)pyridin-3-yl)-6-phenylpyrazine-2-carboxamide], in that order: 40 nM, 9.4 nM and 8.7 nM.
On to `CC1(C)C[C@H](N)C[C@@H](c2ccncc2NC(=O)c2nc(-c3ccccc3)cnc2N)O1` [Example 297, 3-amino-N-(4-((2S,4R)-4-amino-6,6-dimethyltetrahydro-2H-pyran-2-yl)pyridin-3-yl)-6-phenylpyrazine-2-carboxamide], for which the figures for the IC50 at PKCα, at GSK3β and at PDGFRaV561D kinase were 10 nM, 7.9 nM and 150 nM, respectively.
For `CCC[C@H]1O[C@@H](c2ccncc2NC(=O)c2nc(-c3ccccc3)cnc2N)C[C@@H](O)[C@@H]1O` [Example 340, 3-amino-N-(4-((2R,4R,5S,6R)-4,5-dihydroxy-6-propyltetrahydro-2H-pyran-2-yl)pyridin-3-yl)-6-phenylpyrazine-2-carboxamide], in that order: 860 nM, 0.9 nM and 810 nM.
On the same counts, the results for `Nc1ncc(-c2ccccc2)nc1C(=O)Nc1cnccc1[C@H]1C[C@@H](O)[C@H](O)[C@@H](CO)O1` [Example 341, 3-amino-N-(4-((2R,4R,5S,6R)-4,5-dihydroxy-6-(hydroxymethyl)tetrahydro-2H-pyran-2-yl)pyridin-3-yl)-6-phenylpyrazine-2-carboxamide] are 650 nM, 3 nM and 880 nM.
On the same counts, the results for `CC[C@@H]1O[C@H](c2ccncc2NC(=O)c2nc(-c3ccccc3)cnc2N)C[C@H](N)[C@H]1O` [Example 342, 3-amino-N-(4-((2S,4S,5R,6S)-4-amino-6-ethyl-5-hydroxytetrahydro-2H-pyran-2-yl)pyridin-3-yl)-6-phenylpyrazine-2-carboxamide] are 71 nM, 39 nM and 140 nM.
Turning to `CC[C@H]1O[C@@H](c2ccncc2NC(=O)c2nc(-c3ccccc3)cnc2N)C[C@@H](N)[C@@H]1O` [Example 343, 3-amino-N-(4-((2R,4R,5S,6R)-4-amino-6-ethyl-5-hydroxytetrahydro-2H-pyran-2-yl)pyridin-3-yl)-6-phenylpyrazine-2-carboxamide], the IC50 at PKCα was found to be 23 nM; at GSK3β, 12 nM; on PDGFRaV561D kinase, 12 nM.
As for `C[C@]1(O)[C@H](N)C[C@H](c2ccncc2NC(=O)c2nc(-c3ccccc3)cnc2N)O[C@@H]1C1CC1` [Example 344, 3-amino-N-(4-((2R,4R,5S,6R)-4-amino-6-cyclopropyl-5-hydroxy-5-methyltetrahydro-2H-pyran-2-yl)pyridin-3-yl)-6-phenylpyrazine-2-carboxamide], the IC50 on PKCα is 110 nM; at GSK3β, 29 nM; at PDGFRaV561D kinase it was 110 nM.
Consider `CC[C@@H]1O[C@H](c2ccncc2NC(=O)c2nc(-c3ccccc3)cnc2N)C[C@H](N)[C@@]1(C)O` [Example 345, 3-amino-N-(4-((2S,4S,5R,6S)-4-amino-6-ethyl-5-hydroxy-5-methyltetrahydro-2H-pyran-2-yl)pyridin-3-yl)-6-phenylpyrazine-2-carboxamide], for which the IC50 at PKCα was 660 nM; at GSK3β it was 370 nM; at PDGFRaV561D kinase, 7400 nM.
On the same counts, the results for `Nc1ncc(-c2ccccc2)nc1C(=O)Nc1cnccc1[C@H]1C[C@@H](N)[C@H](O)[C@@H](C2CC2)O1` [Example 346, 3-amino-N-(4-((2R,4R,5S,6R)-4-amino-6-cyclopropyl-5-hydroxytetrahydro-2H-pyran-2-yl)pyridin-3-yl)-6-phenylpyrazine-2-carboxamide] are 60 nM, 9.2 nM and 72 nM.
On the same counts, the results for `C[C@@]1(O)[C@@H](N)C[C@@H](c2ccncc2NC(=O)c2nc(-c3ccccc3)cnc2N)O[C@H]1C1CC1` [Example 347, 3-amino-N-(4-((2S,4S,5R,6S)-4-amino-6-cyclopropyl-5-hydroxy-5-methyltetrahydro-2H-pyran-2-yl)pyridin-3-yl)-6-phenylpyrazine-2-carboxamide] are 1000 nM, 570 nM and 9000 nM.
On the same counts, the results for `CC[C@H]1O[C@@H](c2ccncc2NC(=O)c2nc(-c3ccccc3)cnc2N)C[C@@H](N)[C@]1(C)O` [Example 348, 3-amino-N-(4-((2R,4R,5S,6R)-4-amino-6-ethyl-5-hydroxy-5-methyltetrahydro-2H-pyran-2-yl)pyridin-3-yl)-6-phenylpyrazine-2-carboxamide] are 220 nM, 120 nM and 150 nM.
Regarding `Nc1ncc(-c2ccccc2)nc1C(=O)Nc1cnccc1[C@@H]1C[C@H](N)[C@@H](O)[C@H](C2CC2)O1` [Example 349, 3-amino-N-(4-((2S,4S,5R,6S)-4-amino-6-cyclopropyl-5-hydroxytetrahydro-2H-pyran-2-yl)pyridin-3-yl)-6-phenylpyrazine-2-carboxamide], the IC50 on PKCα was 140 nM; at GSK3β it was 100 nM; at PDGFRaV561D kinase, 3300 nM.
As to `C[C@@]1(O)[C@@H](N)C[C@@H](c2ccncc2NC(=O)c2nc(-c3ccccc3)cnc2N)OC12CC2` [Example 350, 3-amino-N-(4-((5S,7S,8R)-7-amino-8-hydroxy-8-methyl-4-oxaspiro[2.5]octan-5-yl)pyridin-3-yl)-6-phenylpyrazine-2-carboxamide], the IC50 at PKCα stood at 21 nM; on GSK3β, 7.8 nM; at PDGFRaV561D kinase, 420 nM.
On the same counts, the results for `C[C@@]1(O)[C@H](N)C[C@@H](c2ccncc2NC(=O)c2nc(-c3ccccc3)cnc2N)OC12CC2` [Example 352, 3-amino-N-(4-((5S,7R,8R)-7-amino-8-hydroxy-8-methyl-4-oxaspiro[2.5]octan-5-yl)pyridin-3-yl)-6-phenylpyrazine-2-carboxamide] are 55 nM, 5.3 nM and 41 nM.
For `C[C@]1(O)[C@H](N)C[C@H](c2ccncc2NC(=O)c2nc(-c3ccccc3)cnc2N)OC12CC2` [Example 353, 3-amino-N-(4-((5R,7R,8S)-7-amino-8-hydroxy-8-methyl-4-oxaspiro[2.5]octan-5-yl)pyridin-3-yl)-6-phenylpyrazine-2-carboxamide], in that order: 84 nM, 25 nM and 760 nM.

These data come from patent US20130109682A1, “CYCLIC ETHER COMPOUNDS USEFUL AS KINASE INHIBITORS” (NOVARTIS AG, priority 2010, published 2013).
